Data set [1] deals with Bromodomain-containing protein 4 (Homo sapiens, UniProt O60885). Briefly: Inhibition of N-terminal His6-tagged recombinant human BRD4 (44 to 168 residues) expressed in Escherichia coli BL21 (DE3) incubated for 60 mins by TR-FRET assay.
Data set [2] can be described thus: Inhibition of c-MYC expression in human JJN-3R cells measured after 4 hrs. In kind it is functional, cell-based.
Data set [3] in a line: Antiproliferative activity against human JJN-3R cells assessed as inhibition of cell proliferation measured after 72 hrs by MTS assay. The data set is classed as functional, cell-based. (In general: Formazan colour is commonly taken as a measure of viable cells.)
Data set [4] in a line: Metabolic stability in alamethicin treated human liver microsomes assessed as half life pretreated for 5 mins followed by NADPH addition and measured up to 45 mins by LC-MS/MS analysis. In kind it is ADME, Microsome. The note with it: time < 50 min. A general note: Liver microsomes are a subcellular fraction often used to study metabolism.
The nature of data set [5]: Metabolic stability in alamethicin treated Sprague-Dawley rat liver microsomes assessed as half life pretreated for 5 mins followed by NADPH addition and measured up to 45 mins by LC-MS/MS analysis. The data set is classed as ADME, Microsome. As to conditions: time < 50 min.
Data set [6] can be described thus: Metabolic stability in alamethicin treated CD-1 mouse liver microsomes assessed as half life pretreated for 5 mins followed by NADPH addition and measured up to 45 mins by LC-MS/MS analysis. The note with it: time < 50 min. The data set is classed as ADME, Microsome.
Data set [7] can be described thus: Metabolic stability in alamethicin treated Beagle dog liver microsomes assessed as half life pretreated for 5 mins followed by NADPH addition and measured up to 45 mins by LC-MS/MS analysis. The data set is classed as ADME, Canis lupus familiaris, Microsome. The note with it: time < 50 min.
Data set [8] in a line: Metabolic stability in alamethicin treated cynomologus monkey liver microsomes assessed as half life pretreated for 5 mins followed by NADPH addition and measured up to 45 mins by LC-MS/MS analysis. The note with it: cynomolgus monkey, time < 50 min. In kind it is ADME, Macaca fascicularis, Microsome.
Data set [9] in a line: Efflux ratio of apparent permeability across […] in human Caco-2 cells after 2 hrs by liquid scintillation counting analysis. The note with it: caco-2, 2 h. The data set is classed as ADME, cell-based. (Caco-2 monolayers are a common model of the intestinal barrier.)
Data set [10] in a line: Metabolic stability in alamethicin treated human liver microsomes assessed as half life pretreated for 5 mins followed by UDPGA addition and measured up to 45 mins by LC-MS/MS analysis. The data set is classed as ADME, Microsome. As to conditions: time < 50 min.
Data set [11] can be described thus: Metabolic stability in alamethicin treated Sprague-Dawley rat liver microsomes assessed as half life pretreated for 5 mins followed by UDPGA addition and measured up to 45 mins by LC-MS/MS analysis. In kind it is ADME, Microsome. As to conditions: time < 50 min.
A short description of data set [12]: Metabolic stability in alamethicin treated CD-1 mouse liver microsomes assessed as half life pretreated for 5 mins followed by UDPGA addition and measured up to 45 mins by LC-MS/MS analysis. The data set is classed as ADME, Microsome. As to conditions: time < 50 min.
Data set [13] in a line: Metabolic stability in alamethicin treated Beagle dog liver microsomes assessed as half life pretreated for 5 mins followed by UDPGA addition and measured up to 45 mins by LC-MS/MS analysis. The note with it: Beagle, liver microsomes, time < 50 min. In kind it is ADME, Canis lupus familiaris, Microsome.
Data set [14] is described as follows: Metabolic stability in alamethicin treated cynomologus monkey liver microsomes assessed as half life pretreated for 5 mins followed by UDPGA addition and measured up to 45 mins by LC-MS/MS analysis. In kind it is ADME, Macaca fascicularis, Microsome. As to conditions: cynomolgus monkey, time < 50 min.

Each structure is given as a SMILES string.

Broadly, the IC50 is the concentration needed to halve the response being measured. As a reminder, the half-life is the time in which the quantity being followed falls by half. On to `[2H]C([2H])([2H])c1nnn(C)c1-c1cnc2c3ccc(C(C)(C)O)cc3n([C@H](c3ccccc3)C3CCOCC3)c2c1`, for which the IC50 in [1] worked out at 1.2 nM; in data set [2] it was 0.8 nM; in data set [3], 6 nM. The half-life in data set [4] was determined as 59 min; in data set [5], 43 min; in data set [6], 25 min; in data set [7], 37 min; in data set [8] it was 29 min. Further, the Ratio in data set [9] worked out at 6.1.

Turning to `[2H]C([2H])([2H])c1nnn(C)c1-c1cnc2c3ccc(S(C)(=O)=O)cc3n([C@H](c3ccccc3)C3CCOCC3)c2c1`, the IC50 in data set [1] came out at 1.7 nM; in [2] it was 2 nM; in data set [3], 13 nM. The half-life in [4] was found to be 75 min; in [5], 47 min; in data set [6], 22 min; in data set [7], 34 min; in [8], 40 min. In [9], the Ratio is on record as 4.5.

As for `[2H]C([2H])([2H])c1nnn(C)c1-c1cnc2c3c(F)cc(C(C)(C)O)cc3n([C@H](c3ccccc3)C3CCOCC3)c2c1`, the IC50 in data set [1] was found to be 8 nM; in data set [2] it was 4.5 nM; in data set [3], 10 nM. In addition, the half-life in data set [4] turned out to be 63 min; in data set [5], 62 min; in data set [6] it was 48 min; in data set [7], 40 min; in data set [8], 32 min; in data set [10] it was 120 min. In addition, the half-life in data set [11], in [12], in data set [13] and in [14] was 120 min in each case. In data set [9], the Ratio worked out at 9.7.

`COC(C)(C)c1ccc2c3ncc(-c4c(C)nnn4C)cc3n([C@H](c3ccccc3)C3CCOCC3)c2c1`: the values for the IC50 in [1], in [2] and in data set [3] were 1.4 nM, 3 nM and 7 nM, respectively. Besides, the results for the half-life in data set [4], in data set [5] and in [6] were 3 min, 18 min and 7 min, respectively.

For the compound `COc1cc2c3ncc(-c4c(C)nnn4C)cc3n([C@H](c3ccccc3)C3CCOCC3)c2cc1C(C)(C)O`, the IC50 in [1] amounted to 0.8 nM; in data set [2] it was 1 nM; in data set [3], 4 nM. The half-life in data set [4] was 9 min; in data set [5], 13 min; in data set [6] it was 5 min; in data set [7] it was 9 min; in data set [8], 1 min; in data set [12], 120 min. In addition, the Ratio in [9] was determined as 1.3.

As for `[2H]C([2H])([2H])c1nnn(C)c1-c1cnc2c3ccc(C(C)(C)O)c(Cl)c3n([C@H](c3ccccc3)C3CCOCC3)c2c1`, the IC50 in data set [1] is 1.1 nM; in [2] it was 1.2 nM; in [3] it was 7 nM. Further, the half-life in [4] was determined as 56 min; in data set [5], 35 min; in [6], 25 min; in data set [7] it was 35 min; in data set [8], 30 min; in data set [10], 120 min. For the same compound, the half-life in data set [11] came to 6 min; in data set [12], 120 min; in data set [13], 120 min; in data set [14], 120 min. In [9], the Ratio is 1.2.

Take `Cc1nnn(C)c1-c1cnc2c3ccc(C(C)(O)C(F)(F)F)c(F)c3n([C@H](c3ccccc3)C3CCOCC3)c2c1` (stereo not given in full): the IC50 was found to be 3 nM in [1], 1.5 nM in data set [2] and 9 nM in data set [3]. Also, the half-life in [4] came out at 40 min; in data set [5], 49 min; in data set [6], 58 min; in data set [7], 42 min; in data set [8], 49 min; in data set [10], 120 min. Besides, the half-life is 51 min in [11], 120 min in [12], 120 min in data set [13] and 120 min in data set [14]. The Ratio in data set [9] is 1.1.

Turning to `Cc1nnn(C)c1-c1cnc2c3ccc(S(C)(=O)=O)cc3n([C@H](c3ccccc3)C3CCOCC3)c2c1`, the IC50 in [1] was found to be 0.9 nM; in data set [2], 1.2 nM; in data set [3] it was 5 nM. Besides, the half-life is 41 min in data set [4]; 44 min in data set [5]; 10 min in data set [6]; 11 min in data set [7]; 12 min in [8]. For the same compound, in data set [9], the Ratio is given as 7.3.

With `[2H]C([2H])([2H])c1nnn(C)c1-c1cnc2c3cc(Cl)c(C(C)(C)O)cc3n([C@H](c3ccccc3)C3CCOCC3)c2c1`, the IC50 was 2.2 nM in [1], 2 nM in data set [2] and 3 nM in data set [3]. Moreover, the half-life was 38 min in data set [4]; 39 min in [5]; 34 min in data set [6]; 33 min in data set [7]; 45 min in [8]; 110 min in [10]. In addition, the half-life in data set [11], in data set [12], in [13] and in [14] was 120 min each time. In [9], the Ratio was found to be 1.4.

As for `[2H]C([2H])([2H])c1nnn(C)c1-c1cnc2c3c(OC)cc(C(C)(C)O)cc3n([C@H](c3ccccc3)C3CCOCC3)c2c1`, the IC50 was found to be 1 nM in [1], 1 nM in data set [2] and 5 nM in [3]. Besides, the half-life in data set [4] turned out to be 23 min; in data set [5] it was 35 min; in data set [6], 28 min; in data set [7] it was 73 min; in data set [8], 11 min; in data set [10], 98 min. Further, the half-life in [11], in [12], in data set [13] and in data set [14] was 120 min in each case. The Ratio in [9] is greater than 35.

For `[2H]C([2H])([2H])c1nnn(C)c1-c1cnc2c3ccc(C(C)(C)O)c(F)c3n([C@H](c3ccccc3)C3CCOCC3)c2c1`, the IC50 in data set [1] was 1 nM; in data set [2], 1.5 nM; in data set [3], 5 nM. The half-life in data set [4] worked out at 67 min; in [5], 38 min; in data set [6], 42 min; in data set [7], 69 min; in data set [8], 29 min; in data set [10] it was 120 min. The half-life amounted to 6 min in [11], 120 min in [12], 120 min in [13] and 120 min in [14]. In addition, in data set [9], the Ratio is given as 1.4.

In the case of `Cc1nnn(C)c1-c1cnc2c3ccc(C(C)C)cc3n([C@H](c3ccccc3)C3CCOCC3)c2c1`, the results for the IC50 in [1], in data set [2] and in [3] were 4 nM, 9 nM and 39 nM, respectively.

The values above are taken from ChEMBL document CHEMBL5120938, “Development of BET Inhibitors as Potential Treatments for Cancer: Optimization of Pharmacokinetic Properties” (ACS Med Chem Lett, 2022).
